In patent US20120059162A1, “FUSED IMIDAZOLE DERIVATIVE HAVING TTK INHIBITORY ACTION” (Oncotherapy Science, Inc., priority 2009, published 2012):

Experiments:
A549 = A549 assay: screening of cancer cell growth inhibiting compound; assay type: cell-based; settings: Homo sapiens, 72 h; A549 cells, three days, WST-8; read-out: A549 IC50
Procedure, shortened: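 A549 cells (1×10^4/ml) in D-MEM with 10% FBS were pre-incubated one day at 37 °C, then exposed to compound dilutions for three further days. Viable cell number read by WST-8 (1–4 hours), absorbance 450 nm (reference 620 nm); inhibition calculated relative to untreated wells.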

TTK = molecular target: T1, TTK (Homo sapiens, UniProt P33981); assay: TTK assay: screening of TTK kinase activity suppressing action using p38 MAPK peptide; assay type: biochemical; settings: p38 MAPK peptide substrate; read-out: TTK IC50
T1 sequence (P33981 1-857): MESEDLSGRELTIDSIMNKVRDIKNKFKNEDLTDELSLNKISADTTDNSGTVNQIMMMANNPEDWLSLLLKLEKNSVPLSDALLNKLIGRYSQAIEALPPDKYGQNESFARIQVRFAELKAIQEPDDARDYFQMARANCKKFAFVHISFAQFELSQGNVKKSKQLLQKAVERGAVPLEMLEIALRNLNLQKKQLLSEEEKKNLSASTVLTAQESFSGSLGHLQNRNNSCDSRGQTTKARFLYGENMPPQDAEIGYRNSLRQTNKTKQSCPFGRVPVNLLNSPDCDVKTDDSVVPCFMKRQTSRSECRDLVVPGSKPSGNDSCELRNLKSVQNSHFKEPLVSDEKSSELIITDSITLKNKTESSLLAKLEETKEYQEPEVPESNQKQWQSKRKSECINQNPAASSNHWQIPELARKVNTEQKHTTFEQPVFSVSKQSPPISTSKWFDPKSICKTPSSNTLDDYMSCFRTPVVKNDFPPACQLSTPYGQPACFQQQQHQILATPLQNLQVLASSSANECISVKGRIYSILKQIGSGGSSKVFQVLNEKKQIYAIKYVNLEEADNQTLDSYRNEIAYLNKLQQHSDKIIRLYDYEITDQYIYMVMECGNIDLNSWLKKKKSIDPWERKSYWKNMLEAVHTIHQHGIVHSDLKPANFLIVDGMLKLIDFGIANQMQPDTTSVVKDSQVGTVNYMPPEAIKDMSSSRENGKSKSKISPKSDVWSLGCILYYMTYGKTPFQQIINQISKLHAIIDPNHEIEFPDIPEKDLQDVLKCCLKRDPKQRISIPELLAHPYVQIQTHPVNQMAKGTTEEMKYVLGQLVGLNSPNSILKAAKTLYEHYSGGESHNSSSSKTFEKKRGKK
Method: Screening of a compound having a TTK kinase activity suppressing action using p38 MAPK peptide
A test substance 1.0 μL (solvent: 10% (v/v) DMSO), TTK solution 5 μL (composition: 4 μg/ml TTK, 25 mM Tris-HCl, pH7.5, 5 mM β-glycerophosphate, 2 mM DTT, 0.1 mM Na3VO4, 5 mM MgCl2, 0.1% (w/v)BSA) and a substrate solution 5 μL (composition: 60 μM p38 MAPK peptide, 60 μM ATP, 25 mM Tris-HCl, pH7.5, 5 mM β-glycerophosphate, 2 mM DTT, 0.1 mM Na3VO4, 5 mM MgCl2, 0.1% (w/v)BSA) were mixed in the wells of a 384-well microtiter plate (manufactured by Corning Incorporated) made of polypropylene and loaded in a constant temperature and humidity room.
From the resultant mixture, an aliquot of 1.7 μL was taken out and mixed with the reaction terminating solution (60 μl) in the wells of a 384-well microtiter plate (manufactured by Corning Incorporated) made of polypropylene. Thereafter, 40 μL of the mixture was transferred to a 384-well black NeutrAvidin plate (PIERCE), sealed and incubated under room temperature for 30 minutes. […] Similarly, the plate was washed with TTBS (100 μL) three times, 40 μl of a secondary antibody solution (Eu-N1 labeled Anti-mouse IgG (Perkin Elmer, #AD0124)) was added and incubated under room temperature for 30 minutes. After the plate was washed with TTBS (100 μL) five times, 40 μL of an enhance solution (Perkin Elmer) was added and incubated under room temperature for 5 minutes. […] Based on the fluorescence value in the absence of a test substance, the suppression activity of a test substance was measured.

Row | SMILES | IC50 (A549) [nM] | IC50 (TTK) [nM]
1 | O=C(NC1CC1)c1ccc(-c2cnc3c(NCC4CCOCC4)cc(NC4CCCC(F)(F)C4)nn23)cc1 (stereo not drawn) [Example 2-80] | ≤ 50 | 4
2 | CC(C)(C)CC(C)(C)Nc1cc(NCC2CCOCC2)c2ncc(-c3ccc(C(=O)NC4CC4)cc3)n2n1 [Example 2-81] | ≤ 50 | 4
3 | CC(C)C(C)(C)Nc1cc(NCC2CCOCC2)c2ncc(-c3ccc(C(=O)NC4CC4)cc3)n2n1 [Example 2-82] | ≤ 50 | 6
4 | O=C(NC1CC1)c1ccc(-c2cnc3c(NCC4CCOCC4)cc(NC4CCCOC4)nn23)cc1 (stereo not drawn) [Example 2-83] | 50 to 500 | 5.2
5 | C#CC(C)(C)Nc1cc(NCC2CCOCC2)c2ncc(-c3ccc(C(=O)NC4CC4)cc3)n2n1 [Example 2-85] | 1000 to 10000 | 4
6 | CCC(C)Nc1cc(NCC2CCOCC2)c2ncc(-c3ccc(C(=O)NC4CC4)cc3)n2n1 (stereo not drawn) [Example 2-87, 4-(6-(sec-Butylamino)-8-((tetrahydro-2H-pyran-4-yl)methylamino)imidazo[1,2-b]pyridazin-3-yl)-N-cyclopropylbenzamide] | 50 to 500 | 6.2
7 | O=C(NC1CC1)c1ccc(-c2cnc3c(OCC4CCOCC4)cc(NC4CCCCC4)nn23)cc1 [Example 2-89, 4-(6-(Cyclohexylamino)-8-((tetrahydro-2H-pyran-4-yl)methoxy)imidazo[1,2-b]pyridazin-3-yl)-N-cyclopropylbenzamide] | 50 to 500 | 5
8 | Nc1ccc(Oc2cc(NCC3CCOCC3)c3ncc(-c4ccc(C(=O)NC5CC5)cc4)n3n2)cc1 [Example 2-92] | 50 to 500 | 4
9 | COc1ccccc1Oc1cc(NCC2CCOCC2)c2ncc(-c3ccc(C(=O)NC4CC4)cc3)n2n1 [Example 2-95] | 50 to 500 | 2.5
10 | Nc1ccccc1Oc1cc(NCC2CCOCC2)c2ncc(-c3ccc(C(=O)NC4CC4)cc3)n2n1 [Example 2-97] | ≤ 50 | 3.3
11 | Cc1ccccc1Oc1cc(NCC2CCOCC2)c2ncc(-c3ccc(C(=O)NC4CC4)cc3)n2n1 [Example 2-101] | 50 to 500 | 2.5
12 | Cc1cccc(Oc2cc(NCC3CCOCC3)c3ncc(-c4ccc(C(=O)NC5CC5)cc4)n3n2)c1 [Example 2-102] | 50 to 500 | 3
13 | O=C(NC1CC1)c1ccc(-c2cnc3c(NCC4CCOCC4)cc(Oc4cccc(F)c4)nn23)cc1 [Example 2-106] | ≤ 50 | 6.4
14 | COc1cccc(Oc2cc(NCC3CCOCC3)c3ncc(-c4ccc(C(=O)NC5CC5)cc4)n3n2)c1 [Example 2-109] | 50 to 500 | 3.3
15 | O=C(NC1CC1)c1ccc(-c2cnc3c(NCC4CCOCC4)cc(Oc4cccc(O)c4)nn23)cc1 [Example 2-110] | 50 to 500 | 2.9
16 | COc1ccc(Oc2cc(NCC3CCOCC3)c3ncc(-c4ccc(C(=O)NC5CC5)cc4)n3n2)c(F)c1 [Example 2-112] | ≤ 50 | 2.7
17 | O=C(NC1CC1)c1ccc(-c2cnc3c(NCC4CCOCC4)cc(Oc4cccc(Cl)c4)nn23)cc1 [Example 2-114] | 50 to 500 | 2.5
18 | O=C(NC1CC1)c1ccc(-c2cnc3c(NCC4CCOCC4)cc(Oc4cccc(F)c4O)nn23)cc1 [Example 2-117] | ≤ 50 | 2.9
19 | O=C(NC1CC1)c1ccc(-c2cnc3c(NCC4CCC4)cc(NC4CCCCC4)nn23)cc1 [Example 2-128] | 50 to 500 | 7.4
20 | O=C(NC1CC1)c1ccc(-c2cnc3c(NCC4CCCC4)cc(NC4CCCCC4)nn23)cc1 [Example 2-129] | 50 to 500 | 6.7
21 | O=C(NC1CC1)c1ccc(-c2cnc3c(NCCCCO)cc(NC4CCCCC4)nn23)cc1 [Example 2-130] | 50 to 500 | 9.7
22 | O=C(NC1CC1)c1ccc(-c2cnc3c(NCC4CC4)cc(NC4CCCCC4)nn23)cc1 [Example 2-132] | 50 to 500 | 6.8
23 | O=C(NC1CC1)c1ccc(-c2cnc3c(NCc4ccc(F)cc4)cc(NC4CCCCC4)nn23)cc1 [Example 2-134] | 50 to 500 | 6.6

Further lines, results first:

Row | IC50 (A549) [nM] | IC50 (TTK) [nM] | SMILES
24 | 500 to 1000 | 18.9 | C#CC(CC)(CC)Nc1cc(NCC2CCOCC2)c2ncc(-c3ccc(C(=O)NC4CC4)cc3)n2n1 [Example 2-76]
25 | 500 to 1000 | 21.3 | C#CC1(Nc2cc(NCC3CCOCC3)c3ncc(-c4ccc(C(=O)NC5CC5)cc4)n3n2)CCCCC1 [Example 2-77]
26 | ≤ 50 | 3.5 | CC(C)C(Nc1cc(NCC2CCOCC2)c2ncc(-c3ccc(C(=O)NC4CC4)cc3)n2n1)C(F)(F)F (stereo not drawn) [Example 2-78]
27 | 50 to 500 | 5.9 | CC1(Nc2cc(NCC3CCOCC3)c3ncc(-c4ccc(C(=O)NC5CC5)cc4)n3n2)CCOCC1 [Example 2-79]
28 | 50 to 500 | 7.5 | CC(Nc1cc(NCC2CCOCC2)c2ncc(-c3ccc(C(=O)NC4CC4)cc3)n2n1)c1cccs1 (stereo not drawn) [Example 2-84]
29 | 50 to 500 | 2.7 | O=C(NC1CC1)c1ccc(-c2cnc3c(NCC4CCOCC4)cc(Oc4ccccc4Cl)nn23)cc1 [Example 2-90, 4-(6-(2-Chlorophenoxy)-8-((tetrahydro-2H-pyran-4-yl)methylamino)imidazo[1,2-b]pyridazin-3-yl)-N-cyclopropylbenzamide]
30 | ≤ 50 | 2.3 | Nc1cccc(Oc2cc(NCC3CCOCC3)c3ncc(-c4ccc(C(=O)NC5CC5)cc4)n3n2)c1 [Example 2-91]
31 | 50 to 500 | 3.3 | O=C(NC1CC1)c1ccc(-c2cnc3c(NCC4CCOCC4)cc(Oc4ccc(Cl)cc4)nn23)cc1 [Example 2-93]
32 | 50 to 500 | 7.5 | O=C(NC1CC1)c1ccc(-c2cnc3c(NCC4CCOCC4)cc(Oc4ccccc4C(F)(F)F)nn23)cc1 [Example 2-96]
33 | ≤ 50 | 2.4 | Nc1c(F)cccc1Oc1cc(NCC2CCOCC2)c2ncc(-c3ccc(C(=O)NC4CC4)cc3)n2n1 [Example 2-98]
34 | 50 to 500 | 4.4 | Cc1ccc(Oc2cc(NCC3CCOCC3)c3ncc(-c4ccc(C(=O)NC5CC5)cc4)n3n2)cc1 [Example 2-103]
35 | 50 to 500 | 34.4 | Cc1cccc(C)c1Oc1cc(NCC2CCOCC2)c2ncc(-c3ccc(C(=O)NC4CC4)cc3)n2n1 [Example 2-107]
36 | 50 to 500 | 3.8 | O=C(NC1CC1)c1ccc(-c2cnc3c(NCC4CCOCC4)cc(Oc4cccc(C(F)(F)F)c4)nn23)cc1 [Example 2-111]
37 | ≤ 50 | 2.2 | O=C(NC1CC1)c1ccc(-c2cnc3c(NCC4CCOCC4)cc(Oc4cc(F)ccc4O)nn23)cc1 [Example 2-118]
38 | 50 to 500 | 8.6 | O=C(NC1CC1)c1ccc(-c2cnc3c(NCC4CCCCC4)cc(NC4CCCCC4)nn23)cc1 [Example 2-125]
39 | 50 to 500 | 23.6 | CN1CCC(CNc2cc(NC3CCCCC3)nn3c(-c4ccc(C(=O)NC5CC5)cc4)cnc23)CC1 [Example 2-126]
40 | 50 to 500 | 5 | CC(=O)N1CCC(CNc2cc(NC3CCCCC3)nn3c(-c4ccc(C(=O)NC5CC5)cc4)cnc23)CC1 [Example 2-127]
41 | 50 to 500 | 5.5 | O=C(NC1CC1)c1ccc(-c2cnc3c(NCC4CCSCC4)cc(NC4CCCCC4)nn23)cc1 [Example 2-131]
42 | 50 to 500 | 6.8 | CCC(CC)CNc1cc(NC2CCCCC2)nn2c(-c3ccc(C(=O)NC4CC4)cc3)cnc12 [Example 2-133]
